Reference: patent publication US20070149515A1, “6-(2,4,6-Trifluorophenyl)-triazolopyrimidines, method for the production thereof, use thereof for controlling harmful fungi, and substances containing the same” (BASF Aktiengesellschaft, priority 2003, published 2007)

Key:
Sphaerotheca fuliginea = experiment: Protective application against powdery mildew on cucumber leaves; format: in vivo; conditions: 63 ppm, sprayed to runoff on cucumber seedlings 'Chinese Snake'; inoculated 20 hours after drying; assessed visually after 7 days; untreated plants 100% infected
Description: The active compounds were prepared separately or together as a stock solution with 0.25% by weight of active compound in acetone or DMSO. 1% by weight of the emulsifier Uniperol® EL (wetting agent with an emulsifying and dispersing action based on ethoxylated alkylphenols) was added to this solution and appropriately diluted with water to the desired concentration. Use example 1—Activity in protective application against powdery mildew on cucumber leaves caused by Sphaerotheca fuliginea Leaves of pot-grown cucumber seedlings of the variety “Chinese Snake” in the cotyledon stage were sprayed to runoff point with an aqueous suspension in the active compound concentration given below. 20 hours after the spray coating had dried on, the plants were inoculated with an aqueous suspension of spores of powdery mildew of cucumber (Sphaerotheca fuliginea). The plants were subsequently cultivated for 7 days in a greenhouse at temperatures of between. 20 and 24° C. and a relative atmospheric humidity of 60 to 80%. The extent of mildew development was then determined visually in % of infection of the cotyledon area.

Pyrenophora teres = experiment: 1 day protective application against net blotch of barley; format: in vivo; conditions: 63 ppm, sprayed to runoff on barley seedlings; inoculated 24 hours after drying; assessed visually after 6 days; untreated plants 90% infected
Description: The active compounds were prepared separately or together as a stock solution with 0.25% by weight of active compound in acetone or DMSO. 1% by weight of the emulsifier Uniperol® EL (wetting agent with an emulsifying and dispersing action based on ethoxylated alkylphenols) was added to this solution and appropriately diluted with water to the desired concentration. Use example 2—Activity in 1 day protective application against net blotch of barley caused by Pyrenophora teres Leaves of pot-grown barley seedlings were sprayed to runoff point with an aqueous suspension in the active compound concentration given below. 24 hours after the spray coating had dried on, the test plants were inoculated with an aqueous suspension of spores of Pyrenophora [syn. Drechslera] teres, the causative agent of net blotch. The test plants were subsequently placed in a greenhouse at temperatures of between 20 and 24° C. and a relative atmospheric humidity of 95 to 100%. After 6 days, the extent of development of the disease was determined visually in % of infection of the total leaf area.

| Compound | extent of mildew development in % of infection of the cotyledon area (Sphaerotheca fuliginea) | extent of development of the disease in % of infection of the total leaf area (Pyrenophora teres) |
| --- | --- | --- |
| COc1nc2ncnn2c(N2CCC(C)CC2)c1-c1c(F)cc(F)cc1F [Compound I-5, 5-methoxy-6-(2,4,6-trifluorophenyl)-7-(4-methylpiperidinyl)[1,2,4]triazolo[1,5a]pyrimidine] | no infection | no infection |
| CC1CCN(c2c(-c3c(F)cc(F)cc3F)c(C#N)nc3ncnn23)CC1 [Compound I-2, 5-cyano-6-(2,4,6-trifluorophenyl)-7-(4-methylpiperidinyl)[1,2,4]triazolo[1,5a]pyrimidine] | no infection | no infection |
